Data reported in patent publication EP1640447A1, “BIOACTIVE PEPTIDE-PRODUCING STRAINS OF i ENTEROCOCCUS FAECALIS /i , BIOACTIVE PEPTIDES AND APPLICATIONS THEREOF” (Grupo Leche Pascual S.A., priority 2003, dated 2004).
Marks after values point to notes of the source that are not given here.

What was measured:
[1] = tested on: spontaneously hypertensive rats (SHR); experiment: Blood pressure (tail cuff) after acute intragastric administration in spontaneously hypertensive rats; format: in vivo; settings: Captopril 50 mg/kg; for variation of diastolic blood pressure / variation of systolic blood pressure: mean ± standard error
Protocol: (§1) Male SHR and WKY rats of 17-20 weeks of age and weight comprised between 250 and 300 g were used, obtained from Charles River Laboratories Espana S.A.. The rats were kept at a stable ambient temperature of 23°C and with 12 hour light-dark cycles, taking water and food at will. The measurement of blood pressure in these animals was carried out by means of a modification of the tail cuff technique, originally disclosed by Buñag (Buñag RD. 1973. J Appl Physiol 34:79). This technique usually allows obtaining only systolic blood pressure (SBP) measurements; however, the equipment used in this study (Le50001 Letica model) allows differentiating the SBP and the diastolic blood pressure (DBP) of the animals, as it automatically provides the digital value of both parameters. For this reason the modification of the SBP and the DBP produced by the acute administration of the fermented milks and the peptides were tested in this study. Before placing the cuff on the tails of the rats, these were exposed to a temperature close to 30°C in order to facilitate the dilation of the caudal artery, and they were lightly anaesthetized with diethyl ether according to the process disclosed by Dietz et al. (Dietz R, Schömig A, Haebara H et al. 1978. Circ Res 43: I98-I106) in order to minimize the effect of stress on the measurement. Furthermore, in order to ensure the reliability of the measurement, the animals were familiarized with the process 2 weeks prior to performing the test in question.
The administration of the products to be tested was performed by means of intragastric probe in a time margin comprised between 9 and 10 am. The SHR rats used for the study had at that time SBP and DBP values comprised respectively between 240 and 290 mm Hg, and between 200 and 250 mm Hg. The WKY rats used for the study had at that time SBP and DBP values comprised respectively between 160 and 200 mm Hg, and between 100 and 140 mm Hg. SBP and DBP measurements were taken periodically in the animals, every 2 hours, up to 8 hours post-administration of the products to be tested; an additional measurement of both variables (SBP and DBP) was taken 24 hours after administration of said products.
In the case of the fermented milks, the supernatant (whey) obtained by centrifugation at 20,000 x g for 10 minutes of the milk fermented and pasteurized at 75°C for 1 minute following the process described in Example 2 was used as an administration product. From the corresponding supernatant a single administration of 5 mL/kg of animal body weight was used.
In the tests with peptide SEQ. ID. NO: 1 a single administration was also performed, and the dose used (2 mg/kg) was equivalent in ACEI activity units to the 5 mL/kg dose of supernatant of the milks fermented by E. faecalis CECT 5727, E. faecalis CECT 5728, E. faecalis CECT 5826 and E. faecalis CECT 5827. […] The most significant results were obtained with the peptide identified by SEQ. ID. NO: 1.
As a negative control (to establish the circadian variation of the SBP and the DBP in probed rats) the measurements obtained in rats that were administered 1 mL of water by intragastric probe were used. As a positive control (to establish the effect on the SBP and the DBP of a prototype ACEI drug, such as Captopril) the measurements of […] obtained in that were administered 50 mg /kg of Captopril by intragastric probe were used. This dose of Captopril was administered to each rat in a volume of 1 mL.
The results obtained were grouped and the mean ± standard error of the mean (SEM) for a minimum of 7 homogeneous tests was obtained. The data from treated animals was contrasted to one another and with the data considered as negative control. […]

Wistar-Kyoto rats (WKY) = experiment: Blood pressure (tail cuff) after acute intragastric administration in normotensive Wistar-Kyoto rats; format: in vivo; settings: whey 5 mL/kg, Captopril 50 mg/kg, LSD test at each time
Protocol: as §1, with “Furthermore, in order to ensure the reliability of the measurement, the animals were familiarized with the process 2 weeks prior to performing the test in question.” left out

[2] = Time 2 h after single intragastric administration, whey 5 mL/kg
[3] = Time 4 h after single intragastric administration, whey 5 mL/kg
[4] = Time 6 h after single intragastric administration, whey 5 mL/kg
[5] = Time 8 h after single intragastric administration, whey 5 mL/kg
[6] = Time 24 h after single intragastric administration, whey 5 mL/kg
[7] = single intragastric administration, whey 5 mL/kg, peptide 2 mg/kg

## C[C@H](CS)C(=O)N1CCC[C@H]1C(=O)O [Captopril]
[1]; peptide 2 mg/kg, intragastric
  time after administration of maximum reduction / smallest values of DBP: 4 h
[1]; whey 5 mL/kg, peptide 2 mg/kg, intragastric
  time after administration of maximum reduction / smallest values of SBP: 6 h
[1]; [2]
  variation of diastolic blood pressure: -28.29±2.40^a
  variation of systolic blood pressure: -36.08±4.52^a
[1]; [3]
  variation of diastolic blood pressure: -34.90±5.34^a
  variation of systolic blood pressure: -51.98±5.36^a
[1]; [4]
  variation of diastolic blood pressure: -28.63±5.77^a
  variation of systolic blood pressure: -54.19±5.11^a
[1]; [5]
  variation of diastolic blood pressure: -26.67±7.94^a
  variation of systolic blood pressure: -35.44±4.70^a
[1]; [6]
  variation of diastolic blood pressure: 1.37±1.02^a
  variation of systolic blood pressure: 1.23±1.49^a
[1]; [7]
  reduction in DBP (in words): pronounced reduction
  reduction in SBP (in words): pronounced reduction
Wistar-Kyoto rats (WKY)
  changes in DBP: no significant differences
  changes in SBP: no significant differences
